The subject of this assay is Entamoeba histolytica. In words: Tested for antiamoebic activity against HK-9 strain of Entamoeba histolytica. Format: functional, organism-based.

Results on five compounds are retold here after ChEMBL document CHEMBL1132766, “Synthesis and antiamoebic activity of new cyclooctadiene ruthenium(II) complexes with 2-acetylpyridine and benzimidazole derivatives” (Bioorg Med Chem Lett, 2000).

In brackets after ≈: the same amount, converted by molar mass.

In the case of `C/C(=N\NC(N)=S)c1ccccn1`, half-maximal inhibition (IC50) required 0.31 µg/mL (≈ 1.6 µM).
Take `c1ccc(-c2nc3ccccc3[nH]2)nc1`: the IC50 (usually the point on the concentration scale where inhibition reaches its midpoint) was found to be 0.42 µg/mL (≈ 2.15 µM). This IC50 and that of the compound before are within 1.5-fold of each other.
`C/C(=N\N=C(/S)SCc1ccccc1)c1ccccn1` returned an IC50 of 0.4 µg/mL (≈ 1.33 µM).
To `CS/C(S)=N/N=C(\C)c1ccccn1` belongs 0.38 µg/mL (≈ 1.69 µM).
In turn, `Cc1ncc([N+](=O)[O-])n1CCO` [METRONIDAZOLE] came in with an IC50 of 0.33 µg/mL (≈ 1.93 µM).
